Data published in publication PMC7991022, “Optimization of extracellular ethanol-tolerant β-glucosidase production from a newly isolated Aspergillus sp. DHE7 via solid state fermentation using jojoba meal as substrate: purification and biochemical characterization for biofuel preparation” (Journal of Genetic Engineering & Biotechnology, 2021).

Test system: T1, Aspergillus sp. DHE7 β-glucosidase
T1 construct: gene beta-D-glucosidase; native extracellular enzyme purified from solid-state culture (jojoba meal): ethanol precipitation, DEAE-Sephadex A-50, Sephadex G-100; monomer, 135 kDa by SDS-PAGE
Assay: p-nitrophenol release at […] nm, Lineweaver-Burk plot
Assay type: biochemical
Conditions: pH 6.0, 60 °C, 50 mM Na-citrate; 0.25 to 20 mM substrate; apparent Km

Km: 400 µM
Structure (SMILES): O=[N+]([O-])c1ccc(O[C@@H]2O[C@H](CO)[C@@H](O)[C@H](O)[C@H]2O)cc1 [p-nitrophenyl-β-D-glucopyranoside]
